Experimental findings from paper PMC3853024, “Aromatase inhibitor treatment with an intravaginal device and its effect on pre-ovulatory ovarian follicles in a bovine model” (Reproductive Biology and Endocrinology : RB&E, 2013) are described below.

Common to all, as to type: in vivo, cattle (Hereford-cross beef heifers)
The test system of experiment [1] is pre-ovulatory ovarian follicles. Briefly: Ovarian ultrasonography in heifers treated with a letrozole-containing intravaginal device. The following applies: for Device placement to ovulation: inserted Day 1, n=15, mean±SEM. The protocol: Hereford-cross beef heifers (n=30), 15 to 20 months of age and weighing between 235 and 405 kg (average 336 kg), were chosen from a herd of 51 heifers maintained in outdoor pens at the University of Saskatchewan Goodale Research Farm (52° North and 106° West). Heifers were fed alfalfa/grass hay and concentrate to gain approximately 1.3 Kg per day and had water ad libitum during the experimental period from October to December. Heifers were initially examined by transrectal ultrasonography (MyLab5 VET, Canadian Veterinary Imaging, Georgetown, Ontario Canada) to detect the presence of a CL (i.e., confirm post-pubertal status; [18]. Animal procedures were performed in accordance with the Canadian Council on Animal Care and were approved by University of Saskatchewan Protocol Review Committee.
(§1) Heifers in which a CL was detected were given two luteolytic doses of PGF (12 h apart) and monitored by ultrasonography for ovulation. Five to eight days later, the two largest ovarian follicles were ablated by transvaginal ultrasound-guided follicular aspiration to synchronize follicular wave emergence which was expected to occur 1 to 1.5 days later. Prostaglandin (500 μg cloprostenol, Estrumate, Schering-Plough Animal Health, Pointe-Claire, QC, Canada) was given intramuscularly at 60 and 72 h after follicular ablation to induce regression of the CL and shift from a non-ovulatory to an ovulatory follicular wave. At the time of follicular wave emergence (Day 0; i.e., 1.5 days after follicle ablation), heifers were assigned randomly to two groups and given an intravaginal device containing 1 g of letrozole (letrozole group, n=15) or a placebo (letrozole-free) intravaginal device (control group, n=15). Devices were inserted on Day 1 and were kept in place until Day 7 or until ovulation was detected, which ever occurred first.
Intravaginal devices were prepared using a Cue-Mate spine (Bioniche Animal Health, Bellville, ON, Canada) assembled with two blank (progesterone-free) silicone pods that were coated with a gel-based vehicle containing letrozole or vehicle only (control). The vehicle contained the following (all ingredients % w/w): letrozole 10%, gelatin 20% (Gelatin type B, Fisher Scientific, Pittsburgh, PA, USA), polymer 65% (prepared by mixing distilled water 68%, Poloxamer 188 12% and Poloxamer 407 20%, both from Spectrum Chemical, New Brunswick, NJ, USA) and distilled water 5%.
The observations from ultrasound examinations were recorded on a sketch sheet in which each ovary and its structures (CL and follicles ≥ 4 mm in diameter) were represented by size and location. Ovulation was defined as the disappearance of any follicle ≥8 mm between two consecutive daily examinations and was confirmed by the subsequent development of a CL [18]. Follicular wave emergence was defined as occurring 1.5 days after follicular ablation. The dominant follicle of a wave was defined as the largest antral follicle of that wave.
Statistical analyses were done using the Statistical Analysis System software package (SAS Learning Edition 9.1, 2006; SAS Institute Inc., Cary, NC, USA). Time-series data (hormone concentrations, follicle and CL diameter profiles) were analyzed by repeated measures using the PROC MIXED procedure. The main effects were treatment (letrozole and control), time, and their interactions (noted in figures as treatment, day and treat*day, respectively). Single-point measurements (dominant follicle diameter at device placement, maximum diameter of extant dominant follicle, intervals from ablation to wave emergence, and from device placement to ovulation) were analyzed by t-tests. Individual time point comparisons between treatment groups were performed using least significant difference test. Significance was defined as P ≤ 0.05.

The test system of the next experiment is plasma estradiol. As to the kind of experiment: Plasma estradiol concentration (radioimmunoassay) in treated heifers. On the procedure: as §1, with “At the time of follicular wave emergence (Day 0; i.e., 1.5 days after follicle ablation), heifers were assigned randomly to two groups and given an intravaginal device containing 1 g of letrozole (letrozole group, n=15) or a placebo (letrozole-free) intravaginal device (control group, n=15).” left out, “first. […]” for “first.”
Plasma concentrations of estradiol were determined using a commercial radioimmunoassay kit (Double Antibody Estradiol; Diagnostic Products Corp., Los Angeles, CA, USA). […]
(§2) Statistical analyses were done using the Statistical Analysis System software package (SAS Learning Edition 9.1, 2006; SAS Institute Inc., Cary, NC, USA). Time-series data (hormone concentrations, follicle and CL diameter profiles) were analyzed by repeated measures using the PROC MIXED procedure. […]

A further experiment deals with plasma LH. As to the kind of experiment: Plasma LH concentration (radioimmunoassay) in treated heifers. The following applies: n=15, P=0.61. The protocol:
as §1, with “At the time of follicular wave emergence (Day 0; i.e., 1.5 days after follicle ablation), heifers were assigned randomly to two groups and given an intravaginal device containing 1 g of letrozole (letrozole group, n=15) or a placebo (letrozole-free) intravaginal device (control group, n=15).” left out, “first. […]” for “first.”
Plasma LH concentrations were determined in duplicate using a double-antibody radioimmunoassay (NIDDK-bLH4). […] All samples were analyzed in a single assay; the intra-assay coefficient of variation was 11.4% for low reference samples (mean, 0.9 ng/mL) and 12.2% for high reference samples (mean, 2.1 ng/mL).
as §2

The structures appear in SMILES notation.

In the case of `N#Cc1ccc(C(c2ccc(C#N)cc2)n2cncn2)cc1` [Letrozole], the “Dominant follicle diameter at device placement” value in experiment [1] (Day 1, at device insertion (baseline), n=15, mean±SEM) is reported as 4.2±0.46 mm. For the same compound, the “Corpus luteum diameter profile versus control” value in experiment [1] (after post-treatment ovulation, n=15, P=0.82) was “not different”. In addition, the Number of ovulations entry in experiment [1] (all heifers, regardless of treatment) was “Single ovulation”. Moreover, the “Day-to-day diameter profile of the dominant follicle versus control” value in experiment [1] (during treatment, n=15, P=0.05) is listed as “larger”. Besides, the “Device placement to ovulation” value in experiment [1] (intravaginal device containing 1 g letrozole) turned out to be 6.1 ± 0.25 days; in experiment [1] (intravaginal device containing 1 g letrozole, listed as letrozole), 6.1 ± 0.25 days. Also, in experiment [1] (intravaginal device containing 1 g letrozole, n=15), the “Delay of ovulation versus control” value turned out to be 24 h. Also, the “Max. diameter of extant dominant follicle” value is 14.6±0.51 mm in experiment [1] (intravaginal device containing 1 g letrozole, n=15, mean±SEM) and 14.6+/-0.51 mm in experiment [1] (intravaginal device containing 1 g letrozole, n=15, mean±SEM, listed as letrozole). In addition, in the experiment with plasma estradiol (n=15), the “Delay of preovulatory rise in estradiol versus control” value stood at 24 h. Further, the “Plasma estradiol concentrations versus control” value in the experiment on plasma estradiol (n=15, P=0.04) is reported as “lower”. The “Mean plasma LH concentrations versus control” value in the experiment on plasma LH is given as “did not differ”.
